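The compound was tested at five concentrations on cells cultured in 96-well plates, with a 48-hour exposure period. At the GI50, growth is halved.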 The source made the active and inactive calls. Rule as the data show it: active = GI50 up to about 1.1 µM and inactive = higher.
What was measured:
Assay in all cases: DTP human tumour cell line panel, 48 h
COLO 205 = tested on: COLO 205
HCT-15 = tested on: HCT-15
CCRF-CEM = tested on: CCRF-CEM
NCI-H226 = tested on: NCI-H226
PC-3 = tested on: PC-3
MDA-MB-435 = tested on: MDA-MB-435
SN12C = tested on: SN12C
SK-MEL-2 = tested on: SK-MEL-2
UACC-62 = tested on: UACC-62
SNB-19 = tested on: SNB-19
HT-29 = tested on: HT-29
A498 = tested on: A498
Malme-3M = tested on: Malme-3M
EKVX = tested on: EKVX
CAKI-1 = tested on: CAKI-1
SF-539 = tested on: SF-539
UACC-257 = tested on: UACC-257
OVCAR-8 = tested on: OVCAR-8
M14 = tested on: M14
RXF 393 = tested on: RXF 393

Row | SMILES | GI50 (COLO 205) | GI50 (HCT-15) [µM] | GI50 (CCRF-CEM) | GI50 (NCI-H226) | GI50 (PC-3) | GI50 (MDA-MB-435) | GI50 (SN12C) | GI50 (SK-MEL-2) | GI50 (UACC-62) | GI50 (SNB-19) | GI50 (HT-29) | GI50 (A498) | GI50 (Malme-3M) | GI50 (EKVX) | GI50 (CAKI-1) | GI50 (SF-539) | GI50 (UACC-257) | GI50 (OVCAR-8) | GI50 (M14) | GI50 (RXF 393)
1 | Nn1c(=O)[nH]c2ncn(Cc3ccccc3)c2c1=O | > 100 µM (inactive) | > 100 | > 100 µM (inactive) | > 100 µM (inactive) | > 100 µM (inactive) | > 100 µM (inactive) | > 100 µM (inactive) | > 100 µM (inactive) | > 100 µM (inactive) | > 100 µM (inactive) | > 100 µM (inactive) | > 100 µM (inactive) | > 100 µM (inactive) | > 100 µM (inactive) | > 100 µM (inactive) | > 100 µM (inactive) | > 100 µM (inactive) | > 100 µM (inactive) | > 100 µM (inactive) | > 100 µM (inactive)
2 | COC(=O)c1ccccc1C1CN=NC12Cc1cc(C)c(C)cc1C2=O (stereo not given) | 49.9 µM (inactive) | 32.7 | 24.1 µM (inactive) | > 100 µM (inactive) | 32.1 µM (inactive) | 33.4 µM (inactive) | 48.9 µM (inactive) | 49.7 µM (inactive) | 53 µM (inactive) | 54.8 µM (inactive) | 29.4 µM (inactive) | 25.8 µM (inactive) | 52.4 µM (inactive) | 42.1 µM (inactive) | 61.2 µM (inactive) | 84.3 µM (inactive) | 14.5 µM (inactive) | 54.6 µM (inactive) | 40.7 µM (inactive) | 66.2 µM (inactive)
3 | CCN(CC)CCOc1ccc(N2Cc3ccccc3C2=O)cc1 | > 10 µM (inactive) | > 10 | > 10 µM (inactive) | > 10 µM (inactive) | > 10 µM (inactive) | > 10 µM (inactive) | > 10 µM (inactive) | > 10 µM (inactive) | > 10 µM (inactive) | > 10 µM (inactive) | > 10 µM (inactive) | > 10 µM (inactive) | > 10 µM (inactive) | > 10 µM (inactive) | > 10 µM (inactive) | > 10 µM (inactive) | > 10 µM (inactive) | > 10 µM (inactive) | > 10 µM (inactive) | > 10 µM (inactive)
4 | O[C@H]1[C@H](O)[C@@H](Cn2nnc(-c3ccccc3)c2-c2ccccc2)OCO[C@@H]1Cn1nnc(-c2ccccc2)c1-c1ccccc1 | 4.99 µM (inactive) | 3.1 | 3.53 µM (inactive) | 5.9 µM (inactive) | 2.68 µM (inactive) | 5.04 µM (inactive) | 2.36 µM (inactive) | 3.15 µM (inactive) | 2.99 µM (inactive) | 8.89 µM (inactive) | 2.26 µM (inactive) | 6.47 µM (inactive) | 9.42 µM (inactive) | 6.47 µM (inactive) | 5.73 µM (inactive) | 3.16 µM (inactive) | 4.32 µM (inactive) | 4.01 µM (inactive) | 3.37 µM (inactive) | 2.97 µM (inactive)
5 | COc1cc2nc(-c3cccs3)nc(N3C(c4ccc(O)cc4)=NNC(=O)c4ccccc43)c2cc1OC | 20.8 µM (inactive) | 32 | 4.99 µM (inactive) | 23.3 µM (inactive) | 25.6 µM (inactive) | 26.2 µM (inactive) | 24.2 µM (inactive) | 26.9 µM (inactive) | 20.5 µM (inactive) | 35.6 µM (inactive) | 23.1 µM (inactive) | > 100 µM (inactive) | 21.1 µM (inactive) | 3.9 µM (inactive) | 22.2 µM (inactive) | < 0.01 µM (active) | 28.4 µM (inactive) | 36.1 µM (inactive) | 29.5 µM (inactive) | 19.8 µM (inactive)
6 | CC(=O)N(C)c1ccc(/N=C/N(C)C)cc1 | > 100 µM (inactive) | > 100 | > 100 µM (inactive) | > 100 µM (inactive) | > 100 µM (inactive) | > 100 µM (inactive) | > 100 µM (inactive) | > 100 µM (inactive) | > 100 µM (inactive) | > 100 µM (inactive) | > 100 µM (inactive) | > 100 µM (inactive) | > 100 µM (inactive) | > 100 µM (inactive) | > 100 µM (inactive) | > 100 µM (inactive) | > 100 µM (inactive) | > 100 µM (inactive) | > 100 µM (inactive) | > 100 µM (inactive)
7 | NC1=NCN(C2OC(CO)C(O)C2O)C(=O)N1 (stereo not given) | 131 µM (inactive) | 4.5 | 7.19 µM (inactive) | 5.57 µM (inactive) | 342 µM (inactive) | 6.64 µM (inactive) | 349 µM (inactive) | 0.977 µM (active) | 15.2 µM (inactive) | 159 µM (inactive) | 42.3 µM (inactive) | 6.85 µM (inactive) | 10.9 µM (inactive) | 509 µM (inactive) | 69 µM (inactive) | 24.3 µM (inactive) | 49 µM (inactive) | 415 µM (inactive) | 5.71 µM (inactive) | 8.99 µM (inactive)
8 | Cc1ccc(C(=O)Nc2ccc(CP(=O)(O)O)cc2CP(=O)(O)O)cc1N | > 100 µM (inactive) | > 100 | > 100 µM (inactive) | > 100 µM (inactive) | > 100 µM (inactive) | > 100 µM (inactive) | > 100 µM (inactive) | > 100 µM (inactive) | > 100 µM (inactive) | > 100 µM (inactive) | > 100 µM (inactive) | > 100 µM (inactive) | > 100 µM (inactive) | > 100 µM (inactive) | > 100 µM (inactive) | > 100 µM (inactive) | > 100 µM (inactive) | > 100 µM (inactive) | > 100 µM (inactive) | > 100 µM (inactive)
9 | CCOC(=O)/C=C(\C(=O)OCC)n1cc(Cl)c(=O)n(CC(=O)OCC)c1=O | 0.697 µM (active) | 3.17 | 5.09 µM (inactive) | 16.4 µM (inactive) | 14.5 µM (inactive) | 16.9 µM (inactive) | 14.5 µM (inactive) | 16.2 µM (inactive) | 10.9 µM (inactive) | 18.8 µM (inactive) | 16.5 µM (inactive) | 19.2 µM (inactive) | 1.57 µM (inactive) | 14.3 µM (inactive) | 2.25 µM (inactive) | 14 µM (inactive) | 2.96 µM (inactive) | 2.19 µM (inactive) | 3.4 µM (inactive) | 1.69 µM (inactive)
10 | C[N+]1(CCC(=O)c2ccccc2)CCC2CCC(C2)C1 (stereo not given) | > 100 µM (inactive) | > 100 | > 100 µM (inactive) | > 100 µM (inactive) | > 100 µM (inactive) | > 100 µM (inactive) | > 100 µM (inactive) | > 100 µM (inactive) | > 100 µM (inactive) | > 100 µM (inactive) | > 100 µM (inactive) | > 100 µM (inactive) | > 100 µM (inactive) | > 100 µM (inactive) | > 100 µM (inactive) | > 100 µM (inactive) | > 100 µM (inactive) | > 100 µM (inactive) | > 100 µM (inactive) | > 100 µM (inactive)
